Test results: US11975003B2, “Methods and compositions for treatment of Zika virus infection” (priority 2016, dated 2024)
Values after ≈ are worked out from the molar mass of the structure shown. Read-outs that look alike come from different tables or passages of the source.

Columns and labels:
[1] = Phase 1 study of intramuscular injection in healthy human subjects (Example 8); format: in vivo; settings: Compound A 4 mg/kg IM with lidocaine
Description: A phase 1 double-blind, placebo-controlled, dose-ranging study was conducted to evaluate the safety, tolerability, and pharmacokinetics of Compound A administered by intramuscular injection (IM) in healthy human subjects. The study was conducted in two parts. In part 1, subjects received a single dose of Compound A at doses from 0.3 mg/kg to 10 mg/kg via IM administration. Additionally, the effect of lidocaine administration (co-administered with Compound A at a dose of 4 mg/kg) on alleviation of pain associated with injection was also evaluated. In part 2, subjects received Compound A for 7 days (q.d.) at doses of 2.5 mg/kg/day, 5 mg/kg/day or 10 mg/kg/day via IM administration. 50 subjects received single doses of Compound A in part 1 (12 subjects received placebo) and 23 subjects received multiple doses of Compound A in part 2 (6 subjects received placebo). All planned cohorts were completed.
Eligible subjects were adults of either sex ages 18 to 50. […]
The plasma concentration time profile of Compound A was determined for each subject in part 2 (results expressed as ng/ml Compound A). Blood samples were taken on Day 1 prior to administration of the first dose and at 1, 2, 3, 4, 6, 8, 10, 12, 16 and 24 hours after administration of the first dose of Compound A and on Day 7 prior to administration of the last dose of Compound A and at 1, 2, 3, 4, 6, 8, 10, 12, 16, 24, 36, 48, 72 and 96 hours after administration of the last dose of Compound A. Plasma samples were obtained from the blood samples and the concentration of Compound A determined.

Zika virus Uganda MR 766 [2] = test: CPE reduction assay (neutral red uptake); format: cell-based; settings: Zika virus
Description: (§1) The compounds were administered at a range of concentrations up to 100 μg/ml. Compounds were prepared in MEM just prior to testing. Inhibition of virus replication was determined by microscopic examination of the infected cells for cytopathic effect, increase of neutral red (NR) dye uptake (colorimetric determination), and virus yield reduction. Uninfected cells treated with a compound were assayed as above for cytotoxicity control. The EC50, EC90 and SI (selectivity index) values were determined in Vero76, Huh7 and RD cells as analyzed by the neutral red uptake dye assay and virus yield reduction assays. The results are presented from 3 or more independent experiments (standard deviations not shown. Three Zika virus strains were used in this in vitro study, Malaysia strain P 6-740, Uganda strain MR-766 and Puerto Rico strain PRVABC-59. Cells were maintained under standard conditions.

[3] = test system: Zika virus Malaysia P 6-740; test: CPE reduction assay (neutral red uptake); format: cell-based; settings: Zika virus
Description: as §1

[4] = test system: Zika virus Puerto Rico PRVABC59; test: CPE reduction assay (neutral red uptake); format: cell-based; settings: Zika virus
Description: as §1

[5] = test system: Zika virus (Malaysia, strain P 6-740); test: Murine Zika virus model, treatment begun 4 h before infection (Example 3); settings: for percentage weight change vs placebo: FIG. 6; for relative virus levels vs placebo: FIG. 7; for survival vs placebo: none surviving past day 20
Description: The agents used in this experiment were compound A (the compound of formula I, where A is NH2 and B is H as the HCL salt) and ribavirin. Compound A was administered IM at 150 mg/kg/day and 300 mg/kg/day, each in a volume of 0.05 ml saline and ribavirin was administered IP at 75 mg/kg/day and 50 mg/kg/day, each in a volume of 0.1 ml saline. IM or IP administration of the daily dose was accomplished in two IM/IP injections of one-half the daily dose each. Mice were administered the first dose of Compound A and ribavirin 4 hours prior to infection with Zika virus and continued the treatment for 8 days post-infection.
In this experiment, Zika virus (Malaysia, strain P 6-740) was administered at a challenge dose of 100 CCID50 (10^3 pfu) per mouse via subcutaneous injection in a 0.1 ml volume.
Mice were monitored for survival 28 days post-virus challenge. Weight change for individual mice were taken on day 0 and every other day through the end of the experiments. Mice were observed daily for signs of disease including conjunctivitis, hunching, and limb weakness or paralysis.
For Zika virus infection and antiviral treatment studies, mice were randomly assigned to groups of 10 animals each. A 10^-3 dilution (10^4.0 pfu/mL) of the virus was prepared in MEM. Mice were challenged s.c. with 0.1 mL of the diluted virus (˜10^3.0 pfu/animal). All compound dosages were based on an average mouse weight of 22 g. Compounds were prepared in sterile saline less than 18 hours prior to initial administration in mice and stored at 4° C. for the duration of the study. Compound A was administered i.m., twice daily (bid) at 300 or 150 mg/kg/d. Ribavirin was given i.p., bid at 75 or 50 mg/kg/d. Treatments began 4 hours prior to virus challenge and continued for 8 days. The identity of the treatment groups was blinded to the technician administering treatments. Mortality was observed twice daily for 28 days, and the weight of each mouse was recorded on day 0 and then every other day from 1-19 days post-virus infection (dpi). Mice were humanely euthanized if they could no longer right themselves or were unresponsive to stimuli.
Fifty to 100 mg of freshly isolated tissue was ground with a pestle in 1 mL TRI Reagent (Sigma-Aldrich, St. Louis, MO) and total RNA was extracted. For the extraction of viral RNA from liquid samples, QlAamp Viral RNA Mini Spin kit was used according to the manufactures instructions (Qiagen, Valencia, CA). Extracted RNA was eluted with nuclease-free water and was amplified by a quantitative real-time RT-PCR using the Logix Smart Zika Test developed by Co-Diagnostics, Inc. (Bountiful, UT). Five μL of the master mix containing a set of primers and Rapid Probe, labeled with a FAM fluorophore and DABCYL quencher, was mixed with 2-5 μL of RNA and an appropriate volume of water for a final reaction volume of 10 μl. RNA was first reverse transcribed for 10 minutes at 55° C., followed by strand separation by heating to 95° C. for 20 seconds. The PCR reaction consisted of 40 cycles at 95° C. for 1 second and 55° C. for 20 seconds. A standard curve was generated with a synthetic RNA spanning the region of amplification and it was used to calculate the number of genome equivalents of the unknown samples.

Zika virus = test: Virus yield reduction curves (FIGS. 1E-1G), strain not stated; format: cell-based
Description: as §1

Zika virus Uganda MR 766 [6] = test: Virus yield reduction (VYR) assay; format: cell-based; settings: Zika virus
Description: as §1

[7] = test system: Zika virus Malaysia P 6-740; test: Virus yield reduction (VYR) assay; format: cell-based; settings: Zika virus
Description: as §1

[8] = test system: Zika virus Puerto Rico PRVABC59; test: Virus yield reduction (VYR) assay; format: cell-based; settings: Zika virus
Description: as §1

Structure (SMILES): CCN(CC)CC(=O)Nc1c(C)cccc1C [lidocaine, reference compound]
- injection site pain on co-administration with Compound A [1]: ameliorate injection site pain

Structure (SMILES): NC(=O)c1ncn([C@@H]2O[C@H](CO)[C@@H](O)[C@H]2O)n1 [Ribavirin, reference compound]
- EC50 (Zika virus Uganda MR 766 [2]; Huh-7 cells): 8.9 ± 7.9 µg/mL (≈ 36.4 µM)
- EC50 (Zika virus Uganda MR 766 [2]; RD cells): 9.3 ± 5.2 µg/mL (≈ 38.1 µM)
- EC50 (Zika virus Uganda MR 766 [2]; Vero 76, Vero76 cells): 85 ± 77.9 µg/mL (≈ 348 µM)
- EC50 ([3]; Huh-7 cells): 7.2 ± 2.8 µg/mL (≈ 29.5 µM)
- EC50 ([3]; Vero 76, Vero76 cells): 143 ± 85 µg/mL (≈ 586 µM)
- EC50 ([4]; Vero 76, read-out: CPE red. assay EC50): 23 ± 16.8 µg/mL (≈ 94.2 µM)
- EC50 ([4]; Puerto Rico PRVABC59, Huh-7 cells, read-out: CPE red. assay EC50): 3.8 ± 1.6 µg/mL (≈ 15.6 µM)
- EC50 ([4]; Puerto Rico PRVABC59, RD cells, read-out: CPE red. assay EC50): 10 ± 6 µg/mL (≈ 40.9 µM)
- percentage weight change vs placebo ([5]; 50 mg/kg/day IP (group 7)): no significant improvement
- relative virus levels vs placebo ([5]; 50 mg/kg/day IP (group 7)): failed to decrease relative virus levels
- survival vs placebo ([5]; 50 mg/kg/day IP bid x 8 days, begun -4 h (group 7)): did not increase the survival
- percentage weight change vs placebo ([5]; 75 mg/kg/day IP (group 5)): no significant improvement
- relative virus levels vs placebo ([5]; 75 mg/kg/day IP (group 5)): failed to decrease relative virus levels
- survival vs placebo ([5]; 75 mg/kg/day IP bid x 8 days, begun -4 h (group 5)): did not increase the survival
- weight change in sham-infected mice at day 19 ([5]; 75 mg/kg/day IP, sham infection): no significant weight change
- antiviral activity in virus yield reduction (Zika virus; Huh-7 cells, FIG. 1F): confirmed the antiviral activity
- antiviral activity in virus yield reduction (Zika virus; RD cells, FIG. 1G): confirmed the antiviral activity
- activity in VYR studies (Zika virus; Vero76 cells, FIG. 1E): not active
- EC90 (Zika virus Uganda MR 766 [6]; Huh-7 cells): 9.52 ± 2.1 µg/mL (≈ 39 µM)
- EC90 (Zika virus Uganda MR 766 [6]; RD cells): 13.2 ± 1.7 µg/mL (≈ 54.1 µM)
- EC90 (Zika virus Uganda MR 766 [6]; Vero 76, Vero76 cells): 198 ± 172 µg/mL (≈ 811 µM)
- EC90 ([7]; Huh-7 cells): 13.1 ± 0.5 µg/mL (≈ 53.6 µM)
- EC90 ([7]; Vero 76, Vero76 cells): 195 ± 63.6 µg/mL (≈ 799 µM)
- EC90 ([8]; Vero 76, read-out: VYR assay EC90): ≥ 281 µg/mL
- EC90 ([8]; Puerto Rico PRVABC59, Huh-7 cells, read-out: VYR assay EC90): 10.4 ± 0.8 µg/mL (≈ 42.6 µM)
- EC90 ([8]; Puerto Rico PRVABC59, RD cells, read-out: VYR assay EC90): 46.3 ± 8.6 µg/mL (≈ 190 µM)
